Laboratory results published in patent US11331271B2, “Buccal, sublingual and intranasal delivery of fospropofol” (The Johns Hopkins University, priority 2016, dated 2022).
“Also recorded” adds a separate entry of the source.

Test system: healthy male volunteers
Assay: Human Study 1: treatment-emergent adverse events (TEAE), safety, Modified OAA/S
Assay type: in vivo
Conditions: for time to resolution of euphoria: one subject
Protocol: In human study 1, fospropofol disodium was formulated as a sterile aqueous solution at a concentration of 20 mg/mL. Each vial provided contained 20 mL of solution, suitable for intravenous injection. Fospropofol was administered as a single dose of 400 mg orally, directly into the duodenum by gastroscopy or intravenously over 10 min. In human study 2, fospropofol disodium in capsules (200 mg) or matching placebo was administered orally.
The first study was an absolute bioavailability study of fospropofol conducted at a single center (PRA Health Sciences) in Groningen, Netherlands, as a three-way crossover study. The study enrolled 7 healthy male volunteers between 18 and 45 years of age inclusive, with a body mass index between 18 and 28 kg/m^2. Subjects stayed in the clinical unit for three consecutive periods of 3 days each, with a 3-day washout, between periods. For six subjects, the order of the administration routes was as follows—period 1: PO, period 2: ID, and period 3: IV. For one subject the order of the administration routes was the following—period 1: ID, period 2: IV and period 3: PO. In this study a single dose of 400 mg was administered by each route. Blinding and placebo control was impractical due to the requirement of unsedated endoscopic administration of fospropofol into the duodenum. Safety and overall pharmacodynamic effect was evaluated based on adverse events, vital signs, electrocardiogram (ECG), Modified Observer's Assessment of Alertness/Sedation (OAA/S) score, clinical laboratory tests, and physical examination.

## CC(C)c1cccc(C(C)C)c1OCOP(=O)(O)O [fospropofol]
400 mg ID
  TEAE GASTROINTESTINAL DISORDERS, events (E): 1
  TEAE GASTROINTESTINAL DISORDERS, subjects (%): 14%
  TEAE GENERAL DISORDERS AND ADMINISTRATION SITE CONDITIONS, events (E): 3
  TEAE GENERAL DISORDERS AND ADMINISTRATION SITE CONDITIONS, subjects (%): 43%
  TEAE INFECTIONS AND INFESTATIONS, events (E): 1
  TEAE INFECTIONS AND INFESTATIONS, subjects (%): 14%
  TEAE NERVOUS SYSTEM DISORDERS, events (E): 3
  TEAE NERVOUS SYSTEM DISORDERS, subjects (%): 43%
  TEAE SKIN AND SUBCUTANEOUS TISSUE DISORDERS, events (E): 1
  TEAE SKIN AND SUBCUTANEOUS TISSUE DISORDERS, subjects (%): 14%
  TEAE TOTAL, events (E): 9
  TEAE TOTAL, subjects (%): 86%
  TEAE dizziness, events (E): 1
  TEAE dizziness, subjects (%): 14%
  TEAE fatigue, events (E): 2
  TEAE fatigue, subjects (%): 29%
  TEAE flatulence, events (E): 1
  TEAE flatulence, subjects (%): 14%
  TEAE herpes simplex, events (E): 1
  TEAE herpes simplex, subjects (%): 14%
  TEAE rash, events (E): 1
  TEAE rash, subjects (%): 14%
  TEAE somnolence, events (E): 2
  TEAE somnolence, subjects (%): 29%
  TEAE subrapubic pain, events (E): 1
  TEAE subrapubic pain, subjects (%): 14%
  subjects with Modified OAA/S score of 4: 43%
  subjects with Modified OAA/S score of 4 (n of 7): Three
400 mg IV
  TEAE BLOOD AND LYMPHATIC SYSTEM DISORDERS, events (E): 1
  TEAE BLOOD AND LYMPHATIC SYSTEM DISORDERS, subjects (%): 14%
  TEAE EYE DISORDERS, events (E): 5
  TEAE EYE DISORDERS, subjects (%): 71%
  TEAE GASTROINTESTINAL DISORDERS, events (E): 4
  TEAE GASTROINTESTINAL DISORDERS, subjects (%): 43%
  TEAE GENERAL DISORDERS AND ADMINISTRATION SITE CONDITIONS, events (E): 9
  TEAE GENERAL DISORDERS AND ADMINISTRATION SITE CONDITIONS, subjects (%): 57%
  TEAE MUSCULOSKELETAL AND CONNECTIVE TISSUE DISORDERS, events (E): 2
  TEAE MUSCULOSKELETAL AND CONNECTIVE TISSUE DISORDERS, subjects (%): 29%
  TEAE NERVOUS SYSTEM DISORDERS, events (E): 31
  TEAE NERVOUS SYSTEM DISORDERS, subjects (%): 100%
  TEAE PSYCHIATRIC DISORDERS, events (E): 2
  TEAE PSYCHIATRIC DISORDERS, subjects (%): 29%
  TEAE REPRODUCTVE SYSTEM AND BREAST DISORDERS, events (E): 1
  TEAE REPRODUCTVE SYSTEM AND BREAST DISORDERS, subjects (%): 14%
  TEAE SKIN AND SUBCUTANEOUS TISSUE DISORDERS, events (E): 1
  TEAE SKIN AND SUBCUTANEOUS TISSUE DISORDERS, subjects (%): 14%
  TEAE TOTAL, events (E): 56
  TEAE TOTAL, subjects (%): 100%
  TEAE burning sensation, events (E): 6
  TEAE burning sensation, subjects (%): 43%
  TEAE catheter site pain, events (E): 1
  TEAE catheter site pain, subjects (%): 14%
  TEAE diplopia, events (E): 1
  TEAE diplopia, subjects (%): 14%
  TEAE disorientation, events (E): 1
  TEAE disorientation, subjects (%): 14%
  TEAE dizziness postural, events (E): 1
  TEAE dizziness postural, subjects (%): 14%
  TEAE dizziness, events (E): 3
  TEAE dizziness, subjects (%): 43%
  TEAE dry mouth, events (E): 1
  TEAE dry mouth, subjects (%): 14%
  TEAE dyspepsia, events (E): 1
  TEAE dyspepsia, subjects (%): 14%
  TEAE ecchymosis, events (E): 1
  TEAE ecchymosis, subjects (%): 14%
  TEAE euphoric mood, events (E): 1
  TEAE euphoric mood, subjects (%): 14%
  TEAE fatigue, events (E): 2
  TEAE fatigue, subjects (%): 29%
  TEAE feeling abnormal, events (E): 1
  TEAE feeling abnormal, subjects (%): 14%
  TEAE feeling cold, events (E): 1
  TEAE feeling cold, subjects (%): 14%
  TEAE feeling drunk, events (E): 1
  TEAE feeling drunk, subjects (%): 14%
  TEAE genital pruritis male, events (E): 1
  TEAE genital pruritis male, subjects (%): 14%
  TEAE lymph node pain, events (E): 1
  TEAE lymph node pain, subjects (%): 14%
  TEAE muscle fatigue, events (E): 2
  TEAE muscle fatigue, subjects (%): 29%
  TEAE nausea, events (E): 1
  TEAE nausea, subjects (%): 14%
  TEAE paresthesia, events (E): 9
  TEAE paresthesia, subjects (%): 86%
  TEAE proctalgia, events (E): 1
  TEAE proctalgia, subjects (%): 14%
  TEAE sluggishness, events (E): 3
  TEAE sluggishness, subjects (%): 43%
  TEAE somnolence, events (E): 5
  TEAE somnolence, subjects (%): 71%
  TEAE speech disorder, events (E): 6
  TEAE speech disorder, subjects (%): 86%
  TEAE tremor, events (E): 1
  TEAE tremor, subjects (%): 14%
  TEAE visual disturbance, events (E): 4
  TEAE visual disturbance, subjects (%): 54%
  subjects with Modified OAA/S score of 4: 57%
  subjects with Modified OAA/S score of 4 (n of 7): 4
  time to resolution of euphoria: 34 min
400 mg PO
  TEAE GASTROINTESTINAL DISORDERS, events (E): 1
  TEAE GASTROINTESTINAL DISORDERS, subjects (%): 14%
  TEAE NERVOUS SYSTEM DISORDERS, events (E): 6
  TEAE NERVOUS SYSTEM DISORDERS, subjects (%): 57%
  TEAE PSYCHIATRIC DISORDERS, events (E): 1
  TEAE PSYCHIATRIC DISORDERS, subjects (%): 14%
  TEAE TOTAL, events (E): 8
  TEAE TOTAL, subjects (%): 86%
  TEAE dizziness, events (E): 1
  TEAE dizziness, subjects (%): 14%
  TEAE euphoric mood, events (E): 1
  TEAE euphoric mood, subjects (%): 14%
  TEAE nausea, events (E): 1
  TEAE nausea, subjects (%): 14%
  TEAE paresthesia, events (E): 1
  TEAE paresthesia, subjects (%): 14%
  TEAE somnolence, events (E): 4
  TEAE somnolence, subjects (%): 57%
  time to resolution of euphoria: 17 min
400 mg oral
  Modified OAA/S score, all subjects at all times: 5
400 mg, Total (PO+ID+IV)
  TEAE BLOOD AND LYMPHATIC SYSTEM DISORDERS, events (E): 1
  TEAE BLOOD AND LYMPHATIC SYSTEM DISORDERS, subjects (%): 14%
  TEAE EYE DISORDERS, events (E): 5
  TEAE EYE DISORDERS, subjects (%): 71%
  TEAE GASTROINTESTINAL DISORDERS, events (E): 6
  TEAE GASTROINTESTINAL DISORDERS, subjects (%): 57%
  TEAE GENERAL DISORDERS AND ADMINISTRATION SITE CONDITIONS, events (E): 12
  TEAE GENERAL DISORDERS AND ADMINISTRATION SITE CONDITIONS, subjects (%): 71%
  TEAE INFECTIONS AND INFESTATIONS, events (E): 1
  TEAE INFECTIONS AND INFESTATIONS, subjects (%): 14%
  TEAE MUSCULOSKELETAL AND CONNECTIVE TISSUE DISORDERS, events (E): 2
  TEAE MUSCULOSKELETAL AND CONNECTIVE TISSUE DISORDERS, subjects (%): 29%
  TEAE NERVOUS SYSTEM DISORDERS, events (E): 40
  TEAE NERVOUS SYSTEM DISORDERS, subjects (%): 100%
  TEAE PSYCHIATRIC DISORDERS, events (E): 3
  TEAE PSYCHIATRIC DISORDERS, subjects (%): 43%
  TEAE REPRODUCTVE SYSTEM AND BREAST DISORDERS, events (E): 1
  TEAE REPRODUCTVE SYSTEM AND BREAST DISORDERS, subjects (%): 14%
  TEAE SKIN AND SUBCUTANEOUS TISSUE DISORDERS, events (E): 2
  TEAE SKIN AND SUBCUTANEOUS TISSUE DISORDERS, subjects (%): 29%
  TEAE TOTAL, subjects (%): 100%
  TEAE burning sensation, events (E): 6
  TEAE burning sensation, subjects (%): 43%
  TEAE catheter site pain, events (E): 1
  TEAE catheter site pain, subjects (%): 14%
  TEAE diplopia, events (E): 1
  TEAE diplopia, subjects (%): 14%
  TEAE disorientation, events (E): 1
  TEAE disorientation, subjects (%): 14%
  TEAE dizziness postural, events (E): 1
  TEAE dizziness postural, subjects (%): 14%
  TEAE dizziness, events (E): 5
  TEAE dizziness, subjects (%): 43%
  TEAE dry mouth, events (E): 1
  TEAE dry mouth, subjects (%): 14%
  TEAE dyspepsia, events (E): 1
  TEAE dyspepsia, subjects (%): 14%
  TEAE ecchymosis, events (E): 1
  TEAE ecchymosis, subjects (%): 14%
  TEAE euphoric mood, events (E): 2
  TEAE euphoric mood, subjects (%): 29%
  TEAE fatigue, events (E): 4
  TEAE fatigue, subjects (%): 43%
  TEAE feeling abnormal, events (E): 1
  TEAE feeling abnormal, subjects (%): 14%
  TEAE feeling cold, events (E): 1
  TEAE feeling cold, subjects (%): 14%
  TEAE feeling drunk, events (E): 1
  TEAE feeling drunk, subjects (%): 14%
  TEAE flatulence, events (E): 1
  TEAE flatulence, subjects (%): 14%
  TEAE genital pruritis male, events (E): 1
  TEAE genital pruritis male, subjects (%): 14%
  TEAE herpes simplex, events (E): 1
  TEAE herpes simplex, subjects (%): 14%
  TEAE lymph node pain, events (E): 1
  TEAE lymph node pain, subjects (%): 14%
  TEAE muscle fatigue, events (E): 2
  TEAE muscle fatigue, subjects (%): 29%
  TEAE nausea, events (E): 2
  TEAE nausea, subjects (%): 14%
  TEAE paresthesia, events (E): 10
  TEAE paresthesia, subjects (%): 86%
  TEAE proctalgia, events (E): 1
  TEAE proctalgia, subjects (%): 14%
  TEAE rash, events (E): 1
  TEAE rash, subjects (%): 14%
  TEAE sluggishness, events (E): 3
  TEAE sluggishness, subjects (%): 43%
  TEAE somnolence, events (E): 11
  TEAE somnolence, subjects (%): 100%
  TEAE speech disorder, events (E): 6
  TEAE speech disorder, subjects (%): 86%
  TEAE subrapubic pain, events (E): 1
  TEAE subrapubic pain, subjects (%): 14%
  TEAE tremor, events (E): 1
  TEAE tremor, subjects (%): 14%
  TEAE visual disturbance, events (E): 4
  TEAE visual disturbance, subjects (%): 57%
400 mg, all routes
  TEAEs considered possibly or probably related to study drug: Seventy
  clinical laboratory results, vital signs, ECG, physical examination: No clinically-relevant abnormalities
  lowest observed Modified OAA/S score: 4
  serious adverse events: No subject experienced a serious adverse event; also recorded: No severe or serious TEAEs
  severity of TEAEs: mild
400 mg, all routes, after dosing
  time to resolution of TEAEs (all but one): ≤ 1 h
400 mg, all routes, postdose
  time by which all subjects had Modified OAA/S scores of 5: ≤ 1.5 h
